Earlier results in patent US9557341B2, “Risk assessment for cutaneous adverse drug reactions from antiretroviral agent” (priority 2008, dated 2017).
Where two headings read alike, the source gives them in different places.

Settings: cited from earlier work; for hypersensitivity reaction incidence: mix French population

Row | SMILES | rate of drug rash (human, in vivo) [%] | rate of hepatitis (human, in vivo) [%] | odds ratios, hypersensitivity and HLA-B*5701 (Caucasians) | rate of unwarranted interruptions of therapy (after HLA-B*5701 screening) [%] | rate of unwarranted interruptions of therapy (before HLA-B*5701 screening) [%] | negative predictive value of HLA-B*5701 for hypersensitivity (every ethnic studies) | hypersensitivity syndrome, cases (human, in vivo) | hypersensitivity reaction incidence (after HLA-B*5701 screening) [%] | hypersensitivity reaction incidence (before HLA-B*5701 screening) [%]
1 | O=C1Nc2ccc(Cl)cc2[C@@](C#CC2CC2)(C(F)(F)F)O1 [EFV, efavirenz] | 11 | 9 | – | – | – | – | – | – | –
2 | Nc1nc(NC2CC2)c2ncn([C@H]3C=C[C@@H](CO)C3)c2n1 [abacavir] | – | – | 117 | 0.73 | 10.2 | more than 90% | about 5% | 0 | 12
